Patent US20180256611A1, “BISPHOSPHONATES FOR INCREASING THE TYPE 2 CHARACTER OF A MODIC CHANGE” (ANTECIP BIOVENTURES II LLC, priority 2017, published 2018)
Several values for one entry are separate records, joined by “and”; a condition that tells them apart may be missing. Equal entries are not always repeated.

Test system: Modic changes (MC) on MRI in chronic LBP patients
Assay: MRI study of size and type of Modic changes over one year after a single intravenous infusion of 5 mg zoledronic acid vs placebo
Type: in vivo, human
Procedure: This study was designed to compare changes in size and type of MC over one year after a single intravenous infusion of 5 mg zoledronic acid (ZA) vs placebo among chronic LBP patients with MC on MRI, and evaluate whether MRI changes correlate with improvement in clinical symptoms.
The study population consisted of patients with chronic LBP and MC on MRI. Inclusion criteria were LBP for at least three months, LBP intensity of at least six on a 10-cm Visual Analog Scale (VAS) or Oswestry Disability Index (ODI) of at least 30%, and a MC on MRI performed within at most six months prior to enrollment. The exclusion criteria included renal impairment, hypocalcaemia, hypersensitivity to bisphosphonates or the infusion, the presence of red flags, nerve root entrapment, willingness for early retirement, and childbearing potential.
All patients (N=20 in both intervention groups) had MRI at baseline (0.23-1.5 T) and one year (1.5-3 T). We evaluated the level, type, volume (cm^3) and proportion of M1 and M2 of all MC. MC were classified to pure M1 (M1 (100%)), mixed M1/2 with predominating M1 (M1/2 (65:35%)) or predominating M2 (M1/2 (35:65%)), and pure M2 (M2 (100%)). The first two were considered M1-dominant, and the latter two M2-dominant. Volumes of M1 and M2 were calculated separately for the primary MC, assumed to cause the symptoms, and for other MC. Cross tabulations were used to describe the distributions of MC type in ZA and placebo groups at baseline and one year. The treatment differences in M1 and M2 volumes, from baseline to one year, were analyzed using ANCOVA with adjustments for age, sex, body mass index and smoking. The correlations of MRI changes with changes in intensity of LBP (10-cm Visual Analog Scale) and Oswestry Disability Index (ODI) were analyzed using Pearson correlations.
Patients were randomized to receive a single intravenous infusion of 5 mg ZA in 100 ml saline (n=20) or 100 ml saline as placebo (n=20) over a 15-minute period. Before administration of the infusion, all patients received oral ibuprofen 600 mg or paracetamol 1 g to prevent acute phase reactions, and 100 000 units of Vitamin D (Vigantol®) to prevent hypocalcaemia. Patients, the principal investigator, performing the screening and follow-up assessments, and the radiologist evaluating the MRI scans were blinded to the treatment allocation.
Baseline MRIs were obtained with five 1.5 T units and a 0.23 T unit. There was some variation in imaging protocols due to the multiple units used. Protocols were of clinical imaging purpose established to spine imaging. The imaging parameters of sagittal T1-weighted (T1W) turbo spin-echo (TSE) or fast spin-echo (FSE) sequences with fluid attenuation inversion recovery (FLAIR) were repetition time (TR) 1800-2270 ms/inversion time (TI) 860 ms/echo time (TE) 9-29 ms (N=16) and without FLAIR: TR 326-793 ms/TE 8-18 ms (N=23). The imaging parameters of sagittal T2-weighted (T2W) TSE/FSE sequences were TR 3000-4500 ms/TE 105-130 ms (N=40). The imaging parameters of short tau inversion recovery sequences (STIR) were e.g. TR 3400/TI 150/TE 70. Spacing, including slice thickness and slice gap, of the image slices was 4.4-6.2 mm in all sequences.
At the one-year follow-up, MRIs were obtained with two 1.5 T units and a 3 T unit. The imaging parameters of sagittal T1-weighted TSE or FSE sequences with FLAIR were TR 2047-2270 ms/TI 860-900 ms/TE 9-29 ms (N=38) and without FLAIR: TR 540-587/TE 12-24 ms (N=2). The imaging parameters of sagittal T2-weighted TSE or FSE sequences were TR 2796-3500 ms/TE 101-123 ms (N=40). Spacing was 3.6-5 mm in all sequences.

[1] = ZA vs placebo, change to follow-up

## O=P(O)(O)C(O)(Cn1ccnc1)P(=O)(O)O [ZA, zoledronic acid]
ZA vs placebo
  Total volume of other than the primary Modic lesion, difference (95% CI), unadjusted: −0.21 (−1.28, 0.86) cm^3
  Volume of M1 of other than the primary Modic lesion, difference (95% CI), unadjusted: −0.17 (−2.12, 1.78) cm^3
  Volume of M2 of other than the primary Modic lesion, difference (95% CI), unadjusted: −0.04 (−1.99, 1.90) cm^3
[1]
  Total volume of the primary Modic lesion, difference (95% CI), adjusted for age, sex, BMI and smoking: −1.64 (−4.03, 0.76) cm^3
  Total volume of the primary Modic lesion, difference (95% CI), age-adjusted analysis: −1.46 (−3.50, 0.59) cm^3
  Volume of M1 of the primary Modic lesion, difference (95% CI), age-adjusted analysis: −1.92 (−4.65, 0.82) cm^3
  Volume of M2 of the primary Modic lesion, difference (95% CI), adjusted for age, sex, BMI and smoking: 0.12 cm^3 and 0.12 (−2.50, 2.75) cm^3
  Volume of M2 of the primary Modic lesion, difference (95% CI), age-adjusted analysis: 0.46 (−1.90, 2.82) cm^3
At baseline, placebo 22%
  Proportion of M1 volume of the total volume, other than primary MC: 13%
At one year, placebo 36%
  Proportion of M1 volume of the total volume, other than primary MC: 24%
baseline
  Total volume of other than the primary Modic lesion, mean (SD): 7.53 (7.53) cm^3
  Total volume of the primary Modic lesion, mean (SD): 12.0 cm^3 and 11.99 (5.14) cm^3
  Volume of M2 of other than the primary Modic lesion, mean (SD): 6.52 (7.63) cm^3
  Volume of M2 of the primary Modic lesion, mean (SD): 4.54 (3.90) cm^3
Baseline to follow-up
  Total volume of other than the primary Modic lesion, mean (SD) change: 0.39 (1.02) cm^3
  Volume of M1 of other than the primary Modic lesion, mean (SD) change: 0.86 (2.19) cm^3
  Volume of M2 of other than the primary Modic lesion, mean (SD) change: −0.47 (2.44) cm^3
Baseline to one year, placebo 11%
  Total volume of other than primary MC increased by: 5%
Baseline to one year, placebo 34%
  M2 volume of primary MC increased by: 56%
Baseline to one year, placebo increased by 18%
  M1 volume of primary MC decreased by: 13%
Baseline to one-year follow-up
  Total volume of the primary Modic lesion, mean (SD) change: 1.6 cm^3 and 1.58 (2.18) cm^3
  Volume of M1 of the primary Modic lesion, mean (SD) change: −0.96 cm^3 and −0.96 (4.33) cm^3
  Volume of M2 of the primary Modic lesion, mean (SD) change: 2.54 cm^3 and 2.54 (2.94) cm^3
baseline, n=17
  Volume of M1 of other than the primary Modic lesion, mean (SD): 1.02 (1.90) cm^3
baseline, n=20
  Volume of M1 of the primary Modic lesion, mean (SD): 7.44 (4.47) cm^3
follow-up
  Total volume of other than the primary Modic lesion, mean (SD): 7.92 (7.31) cm^3
  Volume of M1 of other than the primary Modic lesion, mean (SD): 1.88 (2.47) cm^3
  Volume of M2 of other than the primary Modic lesion, mean (SD): 6.05 (6.43) cm^3
follow-up (one year)
  Total volume of the primary Modic lesion, mean (SD): 13.57 (5.42) cm^3
  Volume of M1 of the primary Modic lesion, mean (SD): 6.48 (5.25) cm^3
  Volume of M2 of the primary Modic lesion, mean (SD): 7.09 (4.50) cm^3
one-year follow-up, placebo 15% (p=0.087)
  M1-dominant primary MC converted to M2-dominant: 45%
